How the values were obtained:
normal pressure monkeys [1] = experiment: Intraocular pressure lowering effect of sepetaprost and netarsudil, alone and concomitantly (Example 2); format: in vivo, cynomolgus monkey; conditions: eye drop 20 μL/eye, sepetaprost 0.0003% (w/v), netarsudil 0.01% (w/v), average of 8 monkeys
Method: In order to examine usefulness of the combination of sepetaprost and a Rho-associated coiled-coil containing protein kinase inhibitor(s), the effect of lowering an intraocular pressure when sepetaprost and netarsudil which is a Rho-associated coiled-coil containing protein kinase inhibitor were administered concomitantly to experimental animals (normal pressure monkeys) was investigated. Sepetaprost was dissolved in purified water containing a solubilizing agent, and then, a sepetaprost solution with a desired concentration was prepared by using a commonly used method. […] An effect of lowering an intraocular pressure when sepetaprost and netarsudil were administered concomitantly was investigated. As a comparative subject, an effect of lowering an intraocular pressure when sepetaprost or netarsudil was administered alone was also investigated. As a control, the base of the sepetaprost solution and the base of the netarsudil solution were administered. […] Also, the intraocular pressure was measured each three times, and the average value was calculated. With respect to the changed value of the intraocular pressure (mmHg), a difference from the value of the intraocular pressure before administration at each measurement time point was calculated. […] The test was carried out in the same manner as the above-mentioned concomitant administration test except for changing the netarsudil solution to the base of the netarsudil solution. The test was carried out in the same manner as the above-mentioned concomitant administration test except for changing the sepetaprost solution to the base of the sepetaprost solution. The test was carried out in the same manner as the above-mentioned concomitant administration test except for changing the sepetaprost solution to the base of the sepetaprost solution and changing the netarsudil solution to the base of the netarsudil solution. The changes in the lowering of the intraocular pressure with the lapse of time for each administered group are shown in FIG. 2 and Table 2. The change in the intraocular pressure values are shown by an average value ±SEM of the difference from the value (0 hour) before administration of eight monkeys in each group with regard to each measurement time point of each individual. Comparison of the control group with the sepetaprost group, the netarsudil group, or the sepetaprost/netarsudil concomitant use group, and comparison of the sepetaprost/netarsudil concomitant use group with the sepetaprost group or the netarsudil group was carried out by, after carrying out the Bartlett test, in the case where dispersion is uniform, using the Dunnett test, or in the case of ununiform, using the Steel test. The significance level with respect to the control group was shown as *: p<0.05 and **: p<0.01 in the Steel test, and *: […] in the Dunnett test.

normal pressure monkeys [2] = experiment: Intraocular pressure lowering effect of sepetaprost and ripasudil, alone and concomitantly (Example 1); format: in vivo, cynomolgus monkey; conditions: eye drop 20 μL/eye, sepetaprost 0.0003% (w/v), ripasudil 0.4% (w/v), average of 8 monkeys
Method: In order to examine usefulness of the combination of sepetaprost and a Rho-associated coiled-coil containing protein kinase inhibitor(s), the effect of lowering an intraocular pressure when sepetaprost and ripasudil which is a Rho-associated coiled-coil containing protein kinase inhibitor were administered concomitantly to experimental animals (normal pressure monkeys) was investigated. Sepetaprost was dissolved in purified water containing a solubilizing agent, and then, a sepetaprost solution with a desired concentration was prepared by using a commonly used method. Commercially available ripasudil eye drop (Kowa Company, Ltd., […] (Registered Trademark) eye drops 0.4%) was used as it was. An effect of lowering an intraocular pressure when sepetaprost and ripasudil were administered concomitantly was investigated. As a comparative subject, an effect of lowering an intraocular pressure when sepetaprost or ripasudil was administered alone was also investigated. As a control, the base of the sepetaprost solution and physiological saline solution were administered. • Sepetaprost solution: 0.0003% (w/v) sepetaprost solution (volume of eye dropped: 20 μL/eye) • Ripasudil solution: 0.4% (w/v) ripasudil solution (trade name: […] Also, the intraocular pressure was measured each three times, and the average value was calculated. With respect to the changed value of the intraocular pressure (mmHg), a difference from the value of the intraocular pressure before administration at each measurement time point was calculated. […] The test was carried out in the same manner as the above-mentioned concomitant administration test except for changing the ripasudil solution to the physiological saline solution. The test was carried out in the same manner as the above-mentioned concomitant administration test except for changing the sepetaprost solution to the base of the sepetaprost solution. The test was carried out in the same manner as the above-mentioned concomitant administration test except for changing the sepetaprost solution to the base of the sepetaprost solution and changing the ripasudil solution to the physiological saline solution. The changes in the lowering of the intraocular pressure with the lapse of time for each administered group are shown in FIG. 1 and Table 1. The changes in the intraocular pressure values are shown by an average value ±SEM of the difference from the value (0 hour) before administration of eight monkeys in each group with regard to each measurement time point of each individual. Comparison of the control group with the sepetaprost group, the ripasudil group, or the sepetaprost/ripasudil concomitant use group, and comparison of the sepetaprost/ripasudil concomitant use group with the sepetaprost group or the ripasudil group was carried out by, after carrying out the Bartlett test, in the case where dispersion is uniform, using the Dunnett test, or in the case of ununiform, using the Steel test. The significance level with respect to the control group was shown as ##: p<0.01 in the Dunnett test, and *: p<0.05 and **: p<0.01 in the Steel test.

SMILES | changed value of the intraocular pressure (difference from value before administration) (normal pressure monkeys [1]; 2 hours after dropping) [mmHg] | changed value of the intraocular pressure (difference from value before administration) (normal pressure monkeys [1]; 4 hours after dropping) [mmHg] | changed value of the intraocular pressure (difference from value before administration) (normal pressure monkeys [1]; 6 hours after dropping) [mmHg] | changed value of the intraocular pressure (difference from value before administration) (normal pressure monkeys [1]; 8 hours after dropping) [mmHg] | changed value of the intraocular pressure (difference from value before administration) (normal pressure monkeys [1]; 24 hours after dropping) [mmHg] | changed value of the intraocular pressure (difference from value before administration) (normal pressure monkeys [2]; 2 hours after dropping) [mmHg] | changed value of the intraocular pressure (difference from value before administration) (normal pressure monkeys [2]; 4 hours after dropping) [mmHg] | changed value of the intraocular pressure (difference from value before administration) (normal pressure monkeys [2]; 6 hours after dropping) [mmHg] | changed value of the intraocular pressure (difference from value before administration) (normal pressure monkeys [2]; 8 hours after dropping) [mmHg] | changed value of the intraocular pressure (difference from value before administration) (normal pressure monkeys [2]; 24 hours after dropping) [mmHg]
Cc1ccc(C(=O)OCc2ccc([C@@H](CN)C(=O)Nc3ccc4cnccc4c3)cc2)c(C)c1 [Netarsudil, [4-[(1S)-1-(aminomethyl)-2-(isoquinolin-6-ylamino)-2-oxoethyl]phenyl]methyl 2,4-dimethylbenzoate] | −0.4 | −2.2 | −2.1 | −2.3 | −0.6 | – | – | – | – | –
C[C@H]1CNCCCN1S(=O)(=O)c1cccc2cncc(F)c12 [Ripasudil, (S)-(−)-1-(4-fluoro-5-isoquinolinesulfonyl)-2-methyl-1,4-homopiperazine] | – | – | – | – | – | −2.4 | −1.8 | −1.6 | −1.5 | −0.4
CC(C)OC(=O)CCC[C@H]1CC[C@@H]2[C@@H](/C=C/[C@@H](O)COc3cc(F)ccc3F)[C@H](O)C[C@@H]2OC1 [Sepetaprost, 2-propanyl 4-{(3S, 5aR, 6R, 7R, 8aS)-6-[(1E, 3R)-4-(2,5-difluorophenoxy)-3-hydroxy-1-buten-1-yl]-7-hydroxyoctahydro-2H-cyclopenta[b]oxepin-3-yl}butanoate] | −0.2 | −1.6 | −2.2 | −2.0 | −1.1 | −0.1 | −0.9 | −1.8 | −1.9 | −0.6

Reference: patent publication US12201602B2, “Medicament comprising combination of sepetaprost and Rho-associated coiled-coil containing protein kinase inhibitor” (SANTEN PHARMACEUTICAL CO., LTD., priority 2017, dated 2025)
